Test results published in ChEMBL document CHEMBL1123689, “Quantitative structure-activity analysis in dihydropteroate synthase inhibition by sulfones. Comparison with sulfanilamides” (J Med Chem, 1987).
Where “and” joins values, the source holds several entries; their conditions need not be identical. Identical values can stand only once.

System: Mycobacterium 607
Assay: Inhibition of Dihydropteroate synthase of Mycobacterium 607 and log (1/MIC) was reported
Settings: not given

Row | Log 1/MIC | Structure (SMILES)
1 | 3.36 | Nc1ccc(S(=O)(=O)c2ccc([N+](=O)[O-])cc2)cc1
2 | 3.59 | Nc1ccc(S(=O)(=O)c2ccc(Br)cc2)cc1
3 | 4.46 | Nc1ccc(S(=O)(=O)c2ccc(NO)cc2)cc1
4 | 4.26 | CCNc1ccc(S(=O)(=O)c2ccc(N)cc2)cc1
5 | 4.62 | Nc1ccc(S(=O)(=O)c2cccc(N)c2)cc1
6 | 3.5 | Nc1ccc(S(=O)(=O)c2ccc(F)cc2)cc1
7 | 4.35 | Nc1ccc(S(=O)(=O)c2ccccc2N)cc1
8 | 4.02 | COc1ccc(S(=O)(=O)c2ccc(N)cc2)cc1
9 | 4.74 | Nc1ccc(S(=O)(=O)c2ccc(NC=O)cc2)cc1
10 | 5.96 | Nc1ccc(S(=O)(=O)c2ccc(O)cc2)cc1

System: not listed separately
Assay: pKa value was determined by spectrophotometrically at pH 8.2 (for di ionic form )
Format: physicochemical
Settings: read-out: pKa2

Row | pKa | Structure (SMILES)
11 | 10.1 | Nc1ccc(S(=O)(=O)c2ccc(O)cc2O)cc1

System: not listed separately
Assay: pKa value by spectrophotometrically at pH 8.2 (for di ionic form )
Format: physicochemical
Settings: read-out: pKa2

Row | pKa | Structure (SMILES)
12 | 9.62 | Nc1ccc(S(=O)(=O)c2c(O)cc(O)cc2O)cc1

System: not listed separately
Assay: pKa value by spectrophotometrically at pH 8.2
Format: physicochemical
Settings: not given

Row | pKa | Structure (SMILES)
13 | 3.6 | Nc1ccc(S(=O)(=O)c2ccc(C(=O)O)cc2)cc1

Target: T1, Dihydropteroate synthase (Escherichia coli K-12) (UniProt P0AC13)
T1 sequence (whole entry): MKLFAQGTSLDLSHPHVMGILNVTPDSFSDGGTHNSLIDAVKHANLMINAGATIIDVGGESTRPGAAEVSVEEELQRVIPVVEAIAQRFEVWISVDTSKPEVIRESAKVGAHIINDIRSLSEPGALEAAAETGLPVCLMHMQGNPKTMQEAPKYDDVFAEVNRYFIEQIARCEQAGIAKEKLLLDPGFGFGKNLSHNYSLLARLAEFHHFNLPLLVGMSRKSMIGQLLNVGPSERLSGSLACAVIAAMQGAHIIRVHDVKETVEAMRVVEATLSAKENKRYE
Assay: Inhibition of dihydropteroate synthase of Escherichia coli
Settings: not given

Row | EII50 | Structure (SMILES)
14 | 6.04 | Cc1ccc(S(=O)(=O)c2ccc(N)cc2)cc1
15 | 34 | COC(=O)c1ccc(S(=O)(=O)c2ccc(N)cc2)cc1
16 | 9.56 | Nc1ccc(S(=O)(=O)c2ccccc2)cc1
17 | 49.1 | CCN(CC)C(=O)c1ccc(S(=O)(=O)c2ccc(N)cc2)cc1
18 | 1.69 | Cc1cc(C)c(S(=O)(=O)c2ccc(N)cc2)c(C)c1
19 | 5.09 | Nc1ccc(S(=O)(=O)c2ccc(C(=O)O)cc2)cc1
20 | 45.3 | Nc1ccc(S(=O)(=O)c2ccc([N+](=O)[O-])cc2)cc1
21 | 20.8 | Nc1ccc(S(=O)(=O)c2ccc(Cl)cc2)cc1
22 | 12.9 | COc1cc(OC)c(S(=O)(=O)c2ccc(N)cc2)c(OC)c1
23 | 1.89 | Cc1ccc(S(=O)(=O)c2ccc(N)cc2)c(C)c1
24 | 2.64 | Nc1ccc(S(=O)(=O)c2ccc(N)cc2)cc1
25 | 2.64 | CCN(CC)c1ccc(S(=O)(=O)c2ccc(N)cc2)cc1
26 | 11.1 | Nc1ccc(S(=O)(=O)c2ccc(Br)cc2)cc1
27 | 43.4 | CC(=O)c1ccc(S(=O)(=O)c2ccc(N)cc2)cc1
28 | 4.53 | Nc1ccc(S(=O)(=O)c2ccc(NO)cc2)cc1
29 | 1.46 and 1.91 | Nc1ccc(S(=O)(=O)c2c(O)cc(O)cc2O)cc1
30 | 4.53 | CCNc1ccc(S(=O)(=O)c2ccc(N)cc2)cc1

Row | EII50 | Structure (SMILES)
31 | 0.71 | Nc1ccc(S(=O)(=O)c2ccc(O)cc2O)cc1
32 | 36.3 | Nc1ccc(S(=O)(=O)c2ccc([N+](=O)[O-])cc2[N+](=O)[O-])cc1
33 | 2.24 | Nc1ccc(S(=O)(=O)c2ccc(Cl)cc2Cl)cc1
34 | 3.21 | COc1ccc(S(=O)(=O)c2ccc(N)cc2)c(OC)c1
35 | 6.04 | Nc1ccc(S(=O)(=O)c2cccc(N)c2)cc1
36 | 3.63 | CN(C)c1ccc(S(=O)(=O)c2ccc(N)cc2)cc1
37 | 1.59 | Nc1ccc(S(=O)(=O)c2ccc(N)cc2N)cc1
38 | 5.75 | CC(=O)Nc1ccc(S(=O)(=O)c2ccc(N)cc2)cc1
39 | 18.1 | Nc1ccc(S(=O)(=O)c2ccc(F)cc2)cc1
40 | 3.31 | Nc1ccc(S(=O)(=O)c2c(Cl)cc(Cl)cc2Cl)cc1
41 | 2.27 | Nc1ccc(S(=O)(=O)c2ccccc2N)cc1
42 | 67.3 | N#Cc1ccc(S(=O)(=O)c2ccc(N)cc2)cc1
43 | 6.6 | COc1ccc(S(=O)(=O)c2ccc(N)cc2)cc1
44 | 22.6 | NC(=O)c1ccc(S(=O)(=O)c2ccc(N)cc2)cc1
45 | 5.79 | Nc1ccc(S(=O)(=O)c2ccc(NC=O)cc2)cc1
46 | 1.5 and 2.45 | Nc1ccc(S(=O)(=O)c2ccc(O)cc2)cc1

System: not listed separately
Assay: pKa value by spectrophotometrically at pH 8.2 (for mono ionic form)
Format: physicochemical
Settings: read-out: pKa1

Row | pKa | Structure (SMILES)
47 | 7.69 | Nc1ccc(S(=O)(=O)c2c(O)cc(O)cc2O)cc1
48 | 7.67 | Nc1ccc(S(=O)(=O)c2ccc(O)cc2O)cc1
